Experimental findings from patent US9688695B2, “Imidazothiadiazole and imidazopyrazine derivatives as protease activated receptor 4 (PAR4) inhibitors for treating platelet aggregation” (BRISTOL-MYERS SQUIBB COMPANY, priority 2012, dated 2017) are described below.

Structures are written as SMILES.

Chain of PAR4 (Q96RI0 18-385): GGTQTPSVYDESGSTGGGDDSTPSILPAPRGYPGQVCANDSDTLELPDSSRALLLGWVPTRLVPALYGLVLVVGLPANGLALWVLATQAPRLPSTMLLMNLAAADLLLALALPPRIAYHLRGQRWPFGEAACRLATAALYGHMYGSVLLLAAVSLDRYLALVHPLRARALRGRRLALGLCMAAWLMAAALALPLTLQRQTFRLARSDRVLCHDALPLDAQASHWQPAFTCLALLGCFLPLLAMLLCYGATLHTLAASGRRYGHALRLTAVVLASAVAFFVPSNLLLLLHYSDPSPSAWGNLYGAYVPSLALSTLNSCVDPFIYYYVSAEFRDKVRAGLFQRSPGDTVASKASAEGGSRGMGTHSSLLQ

The target in this experiment is PAR4 (Homo sapiens (Human), UniProt Q96RI0). As to the kind of experiment: FLIPR assay in PAR4-expressing HEK293 cells (PAR4 antagonist activity, calcium mobilization). The format is cell-based. The conditions noted are these: H-Ala-Phe(4-F)-Pro-Gly-Trp-Leu-Val-Lys-Asn-Gly-NH2-induced calcium mobilization. The text has this:
The FLIPR assay is an exemplary in vitro assay for measuring the activity of the PAR4 antagonists of the present invention. In this assay, intracellular calcium mobilization is induced in PAR4 expressing cells by a PAR4 agonist and calcium mobilization is monitored. See, e.g., Example A.
HEK293 cells stably expressing PAR4 were generated by a standard method of transfection of human […] cDNA expression vector or by RAGE technology from Athersys Inc. (Cleveland, Ohio) and selected based on PAR4 protein expression of mRNA expression. […] These cells express endogenous PAR1 and can elicit calcium signal upon stimulation with PAR1 agonist peptide.
Counter screens for agonist activity and PAR1 antagonist activity were also performed. Briefly, HEK293 EBNA PAR4 clone 20664.1J cells were plated 24 hrs. prior to experiment in 384 well, Poly-D-Lysine coated, black, clear bottom plates (Greiner Bio-One, Monroe, N.C.). Cells were plated at 20,000 cells/well in […] growth medium and incubated at 37° C. with 5% CO2 overnight. At time of assay, media was replaced with 40 μl 1× Hank's Buffered Saline Solution (HBSS) (with 10 mM HEPES) and 20 μl test compound also diluted in 1×HBSS buffer was added at various concentrations and 0.67% DMSO final concentration on the FDSS for agonist measurement. The cells were then incubated for 30 minutes at room temperature followed by addition of 20 μl of agonist peptide for antagonist measurement on the FDSS.
As indicated above, the FLIPR assay, an in vitro assay, measures the PAR4 antagonist activity of compounds tested as described in Example A. The PRP assay, an in vitro assay, measures the PAR4 antagonist assay of the compounds tested in the presence of plasma proteins and thrombin agonist as described in Example C.
For orientation: Calcium assays in cells follow changes in intracellular calcium, usually with a dye or a luminescent sensor.
As for `COc1cc(OCc2nc(-c3ccccc3)sc2Cl)c2cc(-c3cn4nc(OC)sc4n3)oc2c1` [Example 85, 6-(4-((5-Chloro-2-phenylthiazol-4-yl)methoxy)-6-methoxybenzofuran-2-yl)-2-methoxyimidazo[2,1-b][1,3,4]thiadiazole], the EC50 worked out at 1.1 nM.

Consider `COc1cc(OCc2nc(N3CCOCC3)sc2C=O)c2cc(-c3cn4nc(OC)sc4n3)oc2c1` [Example 88, 4-(((6-Methoxy-2-(2-methoxyimidazo[2,1-b][1,3,4]thiadiazol-6-yl)benzofuran-4-yl)oxy)methyl)-2-morpholinothiazole-5-carbaldehyde], for which the 50% effective concentration (EC50) is 2.9 nM.

Take `COc1cc(OCc2nc(N3CCOCC3)sc2CO)c2cc(-c3cn4nc(OC)sc4n3)oc2c1` [Example 89, (4-(((6-Methoxy-2-(2-methoxyimidazo[2,1-b][1,3,4]thiadiazol-6-yl)benzofuran-4-yl)oxy)methyl)-2-morpholinothiazol-5-yl)methanol]: the EC50 stood at 0.69 nM.

`COCc1sc(N2CCOCC2)nc1COc1cc(OC)cc2oc(-c3cn4nc(OC)sc4n3)cc12` [Example 90, 4-(4-(((6-Methoxy-2-(2-methoxyimidazo[2,1-b][1,3,4]thiadiazol-6-yl)benzofuran-4-yl)oxy)methyl)-5-(methoxymethyl)thiazol-2-yl)morpholine]: the EC50 worked out at 0.33 nM.

In the case of `COc1cc(OCc2nc(N3CCOCC3)sc2C(C)(C)O)c2cc(-c3cn4nc(OC)sc4n3)oc2c1` [Example 91, 2-(4-(((6-Methoxy-2-(2-methoxyimidazo[2,1-b][1,3,4]thiadiazol-6-yl)benzofuran-4-yl)oxy)methyl)-2-morpholinothiazol-5-yl)propan-2-ol], the EC50 turned out to be 0.27 nM.

In the case of `COc1cc(OCc2nc(C3CCOCC3)sc2C)c2cc(-c3cn4nc(OC)sc4n3)oc2c1` [Example 95, 2-Methoxy-6-(6-methoxy-4-((5-methyl-2-(tetrahydro-2H-pyran-4-yl)thiazol-4-yl)methoxy)benzofuran-2-yl)imidazo[2,1-b][1,3,4]thiadiazole], the EC50 was found to be 0.83 nM.

On to `COc1cc(OCc2nc(N3CCOCC3)oc2C)c2cc(-c3cn4nc(OC)sc4n3)oc2c1` [Example 97, 4-(4-(((6-Methoxy-2-(2-methoxyimidazo[2,1-b][1,3,4]thiadiazol-6-yl)benzofuran-4-yl)oxy)methyl)-5-methyloxazol-2-yl)morpholine], for which the EC50 worked out at 0.63 nM.

For the compound `COc1cc(OCc2coc(N3CC4CCC(C3)O4)n2)c2cc(-c3cn4nc(OC)sc4n3)oc2c1` [Example 98, 3-(4-(((6-Methoxy-2-(2-methoxyimidazo[2,1-b][1,3,4]thiadiazol-6-yl)benzofuran-4-yl)oxy)methyl)oxazol-2-yl)-8-oxa-3-azabicyclo[3.2.1]octane], the EC50 is 0.37 nM.

Take `COc1cc(OCc2csc(N3CCN(C(=O)OC(C)(C)C)CC3)n2)c2cc(-c3cn4nc(OC)sc4n3)oc2c1` [Example 99, tert-Butyl 4-(4-(((6-methoxy-2-(2-methoxyimidazo[2,1-b][1,3,4]thiadiazol-6-yl)benzofuran-4-yl)oxy)methyl)thiazol-2-yl)piperazine-1-carboxylate]: the EC50 amounted to 0.84 nM.

For the compound `COc1cc(OCc2csc(N3CCN(S(C)(=O)=O)CC3)n2)c2cc(-c3cn4nc(OC)sc4n3)oc2c1` [Example 100, 2-Methoxy-6-(6-methoxy-4-((2-(4-(methylsulfonyl)piperazin-1-yl)thiazol-4-yl)methoxy)benzofuran-2-yl)imidazo[2,1-b][1,3,4]thiadiazole], the EC50 worked out at 0.25 nM.

Turning to `COc1cc(OCc2csc(N3CCN(S(=O)(=O)c4ccc(C#N)cc4)CC3)n2)c2cc(-c3cn4nc(OC)sc4n3)oc2c1` [Example 101, 4-((4-(4-(((6-Methoxy-2-(2-methoxyimidazo[2,1-b][1,3,4]thiadiazol-6-yl)benzofuran-4-yl)oxy)methyl)thiazol-2-yl)piperazin-1-yl)sulfonyl)benzonitrile], the half-maximal effective concentration (EC50) was found to be 0.36 nM.

Turning to `COc1cc(OCc2csc(N3CCN(S(=O)(=O)C(C)C)CC3)n2)c2cc(-c3cn4nc(OC)sc4n3)oc2c1` [Example 102, 6-(4-((2-(4-(Isopropylsulfonyl)piperazin-1-yl)thiazol-4-yl)methoxy)-6-methoxybenzofuran-2-yl)-2-methoxyimidazo[2,1-b][1,3,4]thiadiazole], the EC50 was 2.3 nM.

Regarding `COc1cc(OCc2csc(N3CC4(COC4)C3)n2)c2cc(-c3cn4nc(OC)sc4n3)oc2c1` [Example 104, 6-(4-(((6-Methoxy-2-(2-methoxyimidazo[2,1-b][1,3,4]thiadiazol-6-yl)benzofuran-4-yl)oxy)methyl)thiazol-2-yl)-2-oxa-6-azaspiro[3.3]heptane], the EC50 stood at 0.68 nM.

Turning to `CCc1sc(N2CCOCC2)nc1COc1cc(OC)cc2oc(-c3cn4nc(OC)sc4n3)cc12` [Example 105, 4-(5-Ethyl-4-(((6-methoxy-2-(2-methoxyimidazo[2,1-b][1,3,4]thiadiazol-6-yl)benzofuran-4-yl)oxy)methyl)thiazol-2-yl)morpholine], the EC50 amounted to 0.32 nM.

With `COc1cc(OCc2csc(N(C)CCC#N)n2)c2cc(-c3cn4nc(OC)sc4n3)oc2c1` [Example 106, 3-((4-(((6-Methoxy-2-(2-methoxyimidazo[2,1-b][1,3,4]thiadiazol-6-yl)benzofuran-4-yl)oxy)methyl)thiazol-2-yl)(methyl)amino)propanenitrile], the EC50 was found to be 0.98 nM.

With `COC[C@@H]1CCCN1c1nc(COc2cc(OC)cc3oc(-c4cn5nc(OC)sc5n4)cc23)cs1` [Example 107, (S)-2-Methoxy-6-(6-methoxy-4-((2-(2-(methoxymethyl)pyrrolidin-1-yl)thiazol-4-yl)methoxy)benzofuran-2-yl)imidazo[2,1-b][1,3,4]thiadiazole], the 50% effective concentration (EC50) came to 1.3 nM.

As for `COc1cc(OCc2csc(Nc3ccc(Br)cc3C)n2)c2cc(-c3cn4nc(OC)sc4n3)oc2c1` [Example 108, N-(4-Bromo-2-methylphenyl)-4-(((6-methoxy-2-(2-methoxyimidazo[2,1-b][1,3,4]thiadiazol-6-yl)benzofuran-4-yl)oxy)methyl)thiazol-2-amine], the EC50 is 1.2 nM.

In the case of `COc1cc(OCc2csc(C3CCN(C(=O)OC(C)(C)C)CC3)n2)c2cc(-c3cn4nc(OC)sc4n3)oc2c1` [Example 109, tert-Butyl 4-(4-(((6-methoxy-2-(2-methoxyimidazo[2,1-b][1,3,4]thiadiazol-6-yl)benzofuran-4-yl)oxy)methyl)thiazol-2-yl)piperidine-1-carboxylate], the EC50 is 0.69 nM.

Take `COc1cc(OCc2csc(C3CCN(C(=O)c4ccccc4)CC3)n2)c2cc(-c3cn4nc(OC)sc4n3)oc2c1` [Example 110, (4-(4-(((6-Methoxy-2-(2-methoxyimidazo[2,1-b][1,3,4]thiadiazol-6-yl)benzofuran-4-yl)oxy)methyl)thiazol-2-yl)piperidin-1-yl)(phenyl)methanone]: the half-maximal effective concentration (EC50) is 0.78 nM.

On to `COc1cc(OCc2csc(C3CCN(S(=O)(=O)C(C)C)CC3)n2)c2cc(-c3cn4nc(OC)sc4n3)oc2c1` [Example 111, 6-(4-((2-(1-(Isopropylsulfonyl)piperidin-4-yl)thiazol-4-yl)methoxy)-6-methoxybenzofuran-2-yl)-2-methoxyimidazo[2,1-b][1,3,4]thiadiazole], for which the EC50 was found to be 0.86 nM.

In the case of `COc1cc(OCc2csc(C3CCN(S(C)(=O)=O)CC3)n2)c2cc(-c3cn4nc(OC)sc4n3)oc2c1` [Example 112, 2-Methoxy-6-(6-methoxy-4-((2-(1-(methylsulfonyl)piperidin-4-yl)thiazol-4-yl)methoxy)benzofuran-2-yl)imidazo[2,1-b][1,3,4]thiadiazole], the EC50 was determined as 0.37 nM.

Take `COc1cc(OCc2csc(C3CCN(S(=O)(=O)c4ccccc4)CC3)n2)c2cc(-c3cn4nc(OC)sc4n3)oc2c1` [Example 113, 2-Methoxy-6-(6-methoxy-4-((2-(1-(phenylsulfonyl)piperidin-4-yl)thiazol-4-yl)methoxy)benzofuran-2-yl)imidazo[2,1-b][1,3,4]thiadiazole]: the EC50 was determined as 0.43 nM.

Regarding `COc1cc(OCc2csc(C3CCN(S(=O)(=O)C(F)(F)F)CC3)n2)c2cc(-c3cn4nc(OC)sc4n3)oc2c1` [Example 114, 2-Methoxy-6-(6-methoxy-4-((2-(1-((trifluoromethyl)sulfonyl)piperidin-4-yl)thiazol-4-yl)methoxy)benzofuran-2-yl)imidazo[2,1-b][1,3,4]thiadiazole], the EC50 was determined as 0.49 nM.

As to `COc1cc(OCc2csc(-c3ccno3)n2)c2cc(-c3cn4nc(OC)sc4n3)oc2c1` [Example 116, 5-(4-(((6-Methoxy-2-(2-methoxyimidazo[2,1-b][1,3,4]thiadiazol-6-yl)benzofuran-4-yl)oxy)methyl)thiazol-2-yl)isoxazole], the EC50 was 0.32 nM.

With `COc1cc(OCc2csc(-c3cnco3)n2)c2cc(-c3cn4nc(OC)sc4n3)oc2c1` [Example 117, 5-(4-(((6-methoxy-2-(2-methoxyimidazo[2,1-b][1,3,4]thiadiazol-6-yl)benzofuran-4-yl)oxy)methyl)thiazol-2-yl)oxazole], the 50% effective concentration (EC50) was determined as 0.43 nM.

As usually defined, the EC50 is the concentration needed to bring the measured effect to its halfway point.
